We go through six molecules from PMC8226839, “New Perspectives in the Antimicrobial Activity of the Amphibian Temporin B: Peptide Analogs Are Effective Inhibitors of Candida albicans Growth” (Journal of Fungi, 2021).

For series [1], the system named is sessile C. albicans cells (biofilm). Briefly: Survival of sessile cells of a 24 h old biofilm (CFU plating). Type of series: cell-based, Candida albicans. The following applies: 10 µg mL^−1, 24 h exposure; untreated growth control 100%. As for the experimental part:
(§1) At the time points 5 min, 6 h and 24 h, aliquots were taken and plated in appropriate dilutions onto PDA plates in duplicates to stimulate the growth of viable cells. The colony-forming units (CFU) were counted after incubation at 30 °C for 24 h. […] To determine the efficacy of the TB peptide analogs on sessile C. albicans cells, biofilm formation was induced by adding 100 μL of C. albicans (1 × 10^6 cells mL^−1) in 0.05 × PDB to each well of a 96-well, flat-bottom microtiter plate (Nunclon Delta, Thermo Fisher Scientific, Waltham, MA, USA) and incubating for 24 h at 30 °C. The formed biofilm was then evaluated microscopically for cell attachment and pseudo-hyphae formation before proceeding with peptide application. The serially diluted TB peptide analogs (in 0.05 × PDB) were added to the biofilm in 100 μL aliquots to reach a final volume of 200 μL per well. For the positive control, 10 µg mL^−1 Amphotericin B (Sigma-Aldrich, St. Louis, MO, USA) was used, while 0.05 × PDB was added to the growth control. After further incubation for 24 h at 30 °C, the biofilm was disrupted by vigorous pipetting, and 20 µL of the detached cells were mixed with 80 µL of 0.05 × PDB. […] The effectiveness of the TB peptide analogs to reduce biofilm formation was calculated by comparing the number of CFU at different peptide concentrations with that of the untreated growth control. […]

The subject of series [2] is Candida albicans. Briefly: microbe, parasite or virus in culture.
The subject of another series is IL-1α. Put plainly: Release of proinflammatory cytokine IL-1α from Phenion OS-REp model (ELISA). The settings on record: culture medium 24 h after 35 min exposure; 50 μg peptide per model (SDS 5% w/v).
In a further series the test system is Staphylococcus aureus. The following applies: 24 h.
The test system of series [3] is Candida albicans. The settings on record: 24 h.
The subject of another series is C. albicans. Briefly: Broth microdilution, impact of protease inactivation conditions (growth %). The series is classed as cell-based, Candida albicans. The settings on record: 0.125 µM protease alone + 100 °C, 15 min. For orientation: Broth dilution looks for growth in wells or tubes with falling amounts of substance.
The next series has as its system Candida parapsilosis. The following applies: 24 h.
The subject of another series is Candida glabrata. The following applies: 24 h.
Series [4] concerns Candida albicans 27700 (fluconazole-resistant clinical isolate). The following applies: 27700 (fluconazole-resistant clinical isolate, 24 h).
The nature of the next series: in vitro. The following applies: human, 3D Phenion OS-REp reconstructed epidermis model. The series is classed as cell-based.
A further series relates to C. albicans cells. The series is classed as cell-based, Candida albicans. Here is the method: as §1

Read-outs that look alike come from different tables or passages of the source. Square brackets hold non-standard residues; d marks the D form. Peptide text beside a SMILES is read from it.

Description for in vitro: The TB peptide analogs were tested for their skin irritation potential in vitro using the three-dimensional (3D) Phenion® open-source reconstructed epidermis model (Henkel, Düsseldorf, Germany) with slight adaptation from Groeber et al. and Mewes et al. [22, 23] and the test guidelines 439 of the Organization for Economic Cooperation and Development (OECD) [24]. In brief, the epidermal tissue models were equilibrated in 6-well plates ([…] , Hamburg, Germany) with 1.5 mL of Phenion® OS_REp air-liquid interface (ALI) medium (Henkel, Düsseldorf, Germany) for 24 h at 37 °C, 5% (v/v) CO2. Then, the medium was replaced by fresh medium and 25 μL Dulbecco's phosphate-buffered saline (D-PBS) containing 50 μg of the peptide, respectively, was dispensed directly on top of the models and spread gently over the surface with sterile glass applicators. […] All samples and controls were prepared in triplicates. After incubation at 25 °C for 35 min, each model was thoroughly dipped six times in 1 L of D-PBS. […] From each tissue sample, 200 μL of the formazan extraction solution were transferred in duplicates to a 96-well microtiter plate and the optical density was measured in a multimode plate reader (FLUOstar Omega, BMG Labtech, Ortenberg, Germany) at a wavelength of 550 nm. The relative metabolic activity was calculated from two replicates per tissue and three tissues per assay.

Take `C[C@@H]1[C@H](O)[C@@H](C)/C=C/C=C/C=C/C=C/C=C/C=C/C=C/[C@H](O[C@@H]2O[C@H](C)[C@@H](O)[C@H](N)[C@@H]2O)C[C@@H]2O[C@](O)(C[C@@H](O)C[C@@H](O)[C@H](O)CC[C@@H](O)C[C@@H](O)CC(=O)O[C@H]1C)C[C@H](O)[C@H]2C(=O)O` [Amphotericin B]: the “CFU [%]” value in [1] is listed as 0 ± 0 %. Also, the 90% effect concentration (IC90) in the series on Candida albicans [2] came out at 0.055 µg/mL; in the series with Candida albicans [2] (24 h), 60 nM.
For `CCCCCCCCCCCCOS(=O)(=O)[O-].[Na+]` [5% SDS, sodium dodecyl sulfate], in the series with IL-1α, the “IL-1α” value turned out to be 199.2 ± 47.7 pg/mL.
With `CC[C@H](C)[C@H](NC(=O)[C@@H]1CCCN1C(=O)[C@H](CC(C)C)NC(=O)[C@H](CC(C)C)NC(=O)[C@H](CCCCN)NC(=O)[C@H](CCCCN)NC(=O)[C@H](CCCCN)NC(=O)[C@@H](N)CCCCN)C(=O)N[C@H](C(=O)N[C@@H](CC(N)=O)C(=O)N[C@@H](CC(C)C)C(=O)N[C@@H](CC(C)C)C(=O)N[C@@H](CO)C(=O)N[C@@H](CC(C)C)C(=O)N[C@@H](CC(C)C)C(N)=O)C(C)C` [TB_KKG6K^scrambled] (H-KKKKLLPIVNLLSLL-NH2; N-terminus assumed), the 90% effect concentration (IC90) with Staphylococcus aureus turned out to be 7200 nM; in the series with Candida albicans [3], 1800 nM.
For Chymotrypsin, the “Growth [%]” value with C. albicans is on record as 76.1 ± 6.9%.
`CC[C@H](C)[C@H](NC(=O)[C@@H]1CCCN1C(=O)[C@H](CC(C)C)NC(=O)[C@H](CC(C)C)NC(=O)[C@H](CCCCN)NC(=O)[C@@H](N)CCCCN)C(=O)N[C@H](C(=O)N[C@@H](CCCCN)C(=O)N[C@@H](CC(N)=O)C(=O)N[C@@H](CC(C)C)C(=O)N[C@@H](CC(C)C)C(=O)N[C@@H](CCCCN)C(=O)N[C@@H](CO)C(=O)N[C@@H](CC(C)C)C(=O)N[C@@H](CC(C)C)C(N)=O)C(C)C` [TB_KKG6K] (H-KKLLPIVKNLLKSLL-NH2): the IC90 is 1800 nM in the series with Candida parapsilosis; 1800 nM in the series on Candida glabrata; 1800 nM in series [4]; 3600 nM in the series on Staphylococcus aureus; 1800 nM in the series with Candida albicans [3]. This molecule also gave a viability at 35 min, 2000 µg/mL in the series “in vitro” of 94.2 ± 2.9%. In addition, the “killing (CFU)” value in the series on C. albicans cells (6 h) is recorded as 100%.
For the molecule `CC[C@H](C)[C@H](NC(=O)[C@@H]1CCCN1C(=O)[C@H](CC(C)C)NC(=O)[C@H](CC(C)C)NC(=O)[C@@H](CCCCN)NC(=O)[C@H](N)CCCCN)C(=O)N[C@H](C(=O)N[C@H](CCCCN)C(=O)N[C@@H](CC(N)=O)C(=O)N[C@@H](CC(C)C)C(=O)N[C@@H](CC(C)C)C(=O)N[C@H](CCCCN)C(=O)N[C@@H](CO)C(=O)N[C@@H](CC(C)C)C(=O)N[C@@H](CC(C)C)C(N)=O)C(C)C` [D-Lys_TB_KKG6K] (H-[dK][dK]LLPIV[dK]NLL[dK]SLL-NH2), the IC90 in the series with Candida parapsilosis was 1800 nM; in the series with Candida glabrata it was 1800 nM; in [4] it was 1800 nM; with Staphylococcus aureus it was 14400 nM; with Candida albicans [3], 1800 nM. In addition, the viability at 35 min, 2000 µg/mL in the series “in vitro” was found to be 91.4 ± 2.9%. In the series on C. albicans cells (24 h), the “killing (CFU)” value was 100%.

As a reminder, the IC90 is the point of the concentration-response curve where the effect stands at 90%. A low value points to an effect from little substance. For orientation: viability means the share of living cells, or the viability signal relative to a control. A higher viability goes with less harm to the cells.
